Experimental data from PubChem BioAssay (NCI).
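All cell lines were grown in 96-well plates and treated with compound for 48 hours. GI50 = concentration required for 50% inhibition of growth. TGI: total growth inhibition.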

Key:
Assay in all cases: NCI tumour cell line growth inhibition, 48 h
EKVX NSCLC = test system: EKVX NSCLC
HOP-62 NSCLC = test system: HOP-62 NSCLC
MDA-MB-435 = test system: MDA-MB-435
SF-268 CNS = test system: SF-268 CNS
RPMI-8226 leukemia = test system: RPMI-8226 leukemia
OVCAR-3 ovarian = test system: OVCAR-3 ovarian
NCI-H226 lung = test system: NCI-H226 lung
A498 renal = test system: A498 renal
SN12C renal = test system: SN12C renal
HL-60(TB) leukemia = test system: HL-60(TB) leukemia

| Structure (SMILES) | GI50 (EKVX NSCLC) [µM] | TGI (EKVX NSCLC) [µM] | GI50 (HOP-62 NSCLC) [µM] | TGI (HOP-62 NSCLC) [µM] | GI50 (MDA-MB-435) [µM] | TGI (MDA-MB-435) [µM] | GI50 (SF-268 CNS) [µM] | TGI (SF-268 CNS) [µM] | GI50 (RPMI-8226 leukemia) [µM] | TGI (RPMI-8226 leukemia) [µM] | GI50 (OVCAR-3 ovarian) [µM] | TGI (OVCAR-3 ovarian) [µM] | GI50 (NCI-H226 lung) [µM] | TGI (NCI-H226 lung) [µM] | GI50 (A498 renal) [µM] | TGI (A498 renal) [µM] | GI50 (SN12C renal) [µM] | TGI (SN12C renal) [µM] | GI50 (HL-60(TB) leukemia) [µM] | TGI (HL-60(TB) leukemia) [µM] |
| --- | --- | --- | --- | --- | --- | --- | --- | --- | --- | --- | --- | --- | --- | --- | --- | --- | --- | --- | --- | --- |
| O=C(Nc1n[nH]c2cc(-c3cc(F)ccc3F)ccc12)C1CC1 | > 22.3 | > 25 | 15.2 | > 25 | 4.56 | 21.5 | 19.5 | > 25 | 13.1 | > 25 | 9.3 | 24.2 | 18.4 | > 25 | > 25 | > 25 | 15.7 | > 25 | 7.81 | > 25 |
| N=C1CCCC1C(=S)SCCC(N)=O (stereo unspecified) | – | > 100 | – | > 100 | – | > 100 | – | > 100 | – | > 100 | – | > 100 | – | > 100 | – | > 100 | – | > 100 | – | > 100 |
| Cn1c(I)c(C#C[Si](C)(C)C)c(=O)n(C(=O)c2ccccc2)c1=O | 6.06 | 21.2 | 11.7 | 25.8 | 3.42 | 13.4 | 3.22 | 10.2 | 2.02 | > 20.4 | 1.79 | 3.29 | 7.44 | 21.7 | 10.9 | 24.3 | 6.26 | 18.8 | 1.52 | > 51.5 |
| CC1=NN(c2cccc(Cl)c2)C(=O)/C1=C\c1cn(CC(O)CN2CCCCC2)c2ccccc12 (stereo unspecified) | 11.1 | 25.9 | 12.4 | 26.5 | 1.89 | 3.74 | 10.1 | 24.9 | 2.91 | 8.73 | 7.98 | 20.9 | 22.5 | 50.4 | 14.6 | 41.6 | 12.3 | 35.3 | 2.89 | 14.4 |
| N#C/C(=C\c1ccc2[nH]ccc2c1)C(=O)NCCCCNC(=O)/C(C#N)=C/c1ccc2[nH]ccc2c1 | – | > 31.6 | – | > 31.6 | – | > 10 | – | > 31.6 | – | > 10 | – | > 31.6 | – | > 31.6 | – | > 31.6 | – | > 31.6 | – | > 31.6 |
| CCCCCCCC/C=C/CCCCCCCC1=NC(C)(C)CN1C(C)(C)CO | 1.53 | 4.36 | 1.76 | 3.28 | 1.72 | 3.26 | 2.01 | 3.84 | 2.55 | 5.68 | 1.74 | 3.13 | 2.87 | 7.61 | 11.5 | 25.7 | 2.25 | 6.67 | 2.23 | 5.5 |
| NC(N)=N/N=C\c1ccc(OCc2ccccc2)cc1 | 7.37 | 24.2 | 2.42 | 10.5 | 1.68 | 4.1 | 3.47 | 17.4 | 2.02 | 5.01 | 2.2 | 5.75 | 4.87 | 24.2 | 2.31 | 9.7 | 1.97 | 5.35 | 2.56 | 4.87 |
| CN(C)CCC(=O)Nc1ccc(-n2cc(-c3cccc(NC(=S)Nc4cccc(-c5cn(-c6ccc(NC(=O)CCN(C)C)cc6)nn5)c4)c3)nn2)cc1 | 37.2 | > 100 | 33.1 | > 100 | 26.7 | > 100 | 24.5 | 75.6 | 38.6 | > 100 | 16.4 | 53.4 | 35.3 | > 100 | > 100 | > 100 | 61.5 | > 100 | > 100 | > 100 |
| CSc1nc(Nc2cccc(NC(=O)CCl)c2)c(C#N)c(-c2cccc([N+](=O)[O-])c2)n1 | 3.36 | 13.2 | 2.55 | 11.4 | 2.15 | 5.16 | 2.24 | 5.72 | 2.1 | 5.6 | 1.77 | 3.24 | 2.15 | 6.32 | 12.4 | 37.6 | 2.78 | 10.3 | 1.82 | 6.48 |
| O=C1c2cccc3cccc(c23)C(=O)N1CCCCCN1CCN(CCN=c2cc3n(-c4ccc(Cl)cc4)c4ccccc4nc-3cc2Nc2ccc(Cl)cc2)CC1 | 14.5 | > 50 | 8.63 | 23.5 | 9.21 | 21.4 | 23.1 | > 50 | 5.22 | 16.9 | 1.07 | 3.4 | 35.6 | > 50 | > 50 | > 50 | 10.4 | 26.4 | 6.91 | 21.3 |
| Nc1cc2c3c(cccc3c1)C(=O)N(CCN1CCCC1)C2=O | 3.69 | 54.2 | 2.58 | 25.5 | 4.06 | 14.8 | 4.62 | 30.5 | 1.23 | 11.9 | 5.26 | 29.3 | 1.98 | 6.23 | 2.54 | 7.89 | 2.73 | > 84.8 | 4.16 | > 100 |
| CCCC(=O)O[C@]1(C)CC[C@@H]2[C@H]3[C@@H]1[C@@H]1C[C@@](C)(O)[C@H](OC)CC[C@](C)(OC(=O)[C@@H]2C)[C@H]3O1 | 47.3 | > 100 | 82.7 | > 100 | 34.3 | > 100 | 38.6 | > 100 | 13.8 | 26.8 | 16.9 | 40 | 55 | > 100 | 35.4 | > 100 | 24.8 | 59.5 | 21.2 | 45.1 |
| Clc1ccccc1C(Nc1cnccn1)Nc1cnccn1 | – | > 100 | – | > 100 | – | > 100 | – | > 100 | – | > 100 | – | > 100 | – | > 100 | – | > 100 | – | > 100 | – | > 100 |
| Oc1ccc(Cl)cc1C=Nc1cnc2ccccc2c1 | – | > 86 | – | > 100 | – | > 100 | – | > 100 | – | 85.6 | – | > 59.8 | – | > 100 | – | > 100 | – | > 100 | – | 34.9 |
| Cn1c(COC(=O)NCCc2ccccn2)nc2c(N3CCOCC3)nc(Cl)nc21 | 1.7 | 3.7 | 1.65 | 4.88 | 1.46 | 3.46 | 1.52 | 3.11 | – | – | 1.08 | 2.58 | 12.3 | 30.4 | 1.53 | 6.36 | 1.37 | 3.48 | 1.17 | 4.61 |
| O=c1[nH]c(C2CCCN2)nc2c1oc1ccc(Cl)cc12 (stereo unspecified) | – | – | 49.9 | > 100 | > 100 | > 100 | > 100 | > 100 | > 100 | > 100 | > 100 | > 100 | 18.6 | > 100 | 1.77 | 25 | > 100 | > 100 | > 100 | > 100 |
| [N-]=[N+]=CC(=O)CCC(N)C(=O)O (stereo unspecified) | 3.47 | > 141 | – | 43.2 | 7.2 | > 250 | 1.65 | 190 | – | – | 1.45 | > 244 | – | > 250 | 7.72 | > 250 | 4.86 | 248 | 2.3 | 208 |
| COc1c2ccoc2nc2c(OC)c(OCC(O)C(C)(C)O)ccc12 (stereo unspecified) | – | > 100 | – | – | – | > 100 | – | > 100 | – | > 100 | – | > 100 | – | > 100 | – | > 100 | – | > 100 | – | > 100 |
| COc1cc(C2CC(c3ccc(Nc4nc(NCCO)nc(NCCO)n4)cc3)=NN2c2cc(Cl)cc(Cl)c2)cc(OC)c1OC (stereo unspecified) | 2.03 | 6.17 | – | – | 1.55 | 3.24 | 1.52 | 4.09 | 1.15 | 6.28 | 1.62 | 3.13 | 3.85 | 16.8 | 16.6 | 30.2 | 1.75 | 3.82 | 1.5 | 3.43 |
| O=C(Nc1ccc(Cl)cc1C(F)(F)F)C(=O)Nn1c(=S)[nH]c2ccccc2c1=O | – | – | – | > 100 | – | > 100 | – | > 100 | – | > 100 | – | > 100 | – | > 100 | – | > 100 | – | > 100 | – | > 100 |
| O=C1NC(=NCCc2ccc(Cl)cc2)S/C1=C\c1ccc2ncccc2c1 | – | – | 14.3 | > 25 | 10 | > 25 | 11.7 | > 25 | > 23 | > 25 | > 25 | > 25 | > 25 | > 25 | 13.8 | > 25 | > 25 | > 25 | 8.69 | > 25 |
